According to article PMC4942054 (PLoS ONE, 2016):

Biological target: T1, dihydrofolate reductase (DHFR) from chicken liver (Gallus gallus, UniProt P00378)
T1 sequence (P00378 1-189): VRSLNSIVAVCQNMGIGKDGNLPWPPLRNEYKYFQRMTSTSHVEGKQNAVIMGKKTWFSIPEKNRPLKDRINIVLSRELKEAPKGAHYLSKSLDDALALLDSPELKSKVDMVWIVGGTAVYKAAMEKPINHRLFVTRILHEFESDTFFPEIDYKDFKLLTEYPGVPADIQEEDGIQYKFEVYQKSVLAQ
Assay: DHF-dependent NADPH oxidation, absorbance at […] nm
Type: biochemical
Conditions: 0.187 mM DHF, 0.137 mM NADPH, 0.5 M KCl, 0.05 M Tris-HCl pH 7.5, 25°C, 40 min; partially purified enzyme 35 μg/ml; sample released from PEG40 conjugate at pH 3.0, equipotent to MTX-hexamethylenamine

IC50: 0.19 ± 0.007 µM
SMILES: CN(Cc1cnc2nc(N)nc(N)c2n1)c1ccc(C(=O)N[C@@H](CCC(=O)NCCCCCCN)C(=O)O)cc1 [MTX-hexamethylenamine]
